Data on 2 compounds can be found in patent publication US9505834B2, “Methods for controlling the galactosylation profile of recombinantly-expressed proteins” (AbbVie Inc., priority 2011, dated 2016).

The test system of test [1] is adalimumab-producing CHO cell line. Nature of the test: Example 2 oligosaccharide analysis, HyClone CDM4CHO, batch shake flasks. The test is classed as cell-based, Chinese Hamster. The method, then:
(§1) For all studies with CHO cell lines described throughout this invention, samples were collected daily and measured for cell density and viability using a Cedex cell counter. Retention samples for titer analysis via Poros A method were collected by centrifugation at 12,000 RPM for 5 min when the culture viability began declining. The cultures were harvested by collecting 125 mL aliquots and centrifuging at 3,000 RPM for 30 min when culture viability was near or below 50%. All supernatants were stored at −80° C. until analysis.
(§2) For all studies, the harvest samples were Protein A purified and prepared for the oligosaccharide assay using the following procedures. As a first step in the process of establishing the identity and quantifying the oligosaccharides, they are released from the protein by enzymatic digestion with N-glycanase. Once the glycans are released, the free reducing end of each glycan is labeled by reductive amination with a fluorescent tag, 2-aminobenzamide (2-AB). The resulting labeled glycans are separated by normal-phase HPLC (NP-HPLC) in acetonitrile: 50 mM ammonium formate, pH 4.4, and detected by a fluorescence detector. Quantitation is based on the relative area percent of detected sugars. Throughout this invention, the relative area percentages of the agalactosyl fucosylated biantennary oligosaccharides, denoted as NGA2F+NGA2F-GlcNAc sum, and the galactose-containing fucosylated biantennary oligosaccharides NA1F+NA2F sum are reported and discussed.
Growth and production media for the adalimumab-producing CHO cell line were prepared using Thermo Scientific HyClone chemically defined media CDM4CHO without L-glutamine (Catalogue #SH30558.02). […] All media were filtered through Corning 0.5 L or 1 L (0.22 μm PES) filter systems and stored at 4° C. until use.
Upon thaw, cells were adapted to and expanded in HyClone CDM4CHO media for 5 (2 to 3 day each) passages in a combination of 250 mL, 500 mL, and 1000 mL Corning vented non-baffled shake flasks. Production cultures were initiated in duplicate 500 mL Corning vented non-baffled shake flasks (200 mL working volume) at an initial VCD of approximately 0.5×10^6 cells/mL. Cultures were maintained on orbital shakers at 110 RPM in a dry incubator at 35° C. and 5% CO2. A glucose solution (1.25% (v/v) of 40% solution) was fed when the media glucose concentration fell below 3 g/L. […]

The subject of test [2] is adalimumab-producing CHO cell line #2. Nature of the test: Example 4 culture growth & productivity. The test is classed as cell-based, Chinese Hamster. The note with it: galactose 0 to 20 mM and/or manganese chloride 0 to 40 μM. On the procedure: as §1
Growth and production media for the adalimumab-producing CHO cell line #2 were prepared using a proprietary Life Technologies Gibco chemically defined media, GIA-1. […] All media were filtered through Corning 0.5 L or 1 L filter systems (0.22 μm PES) and stored at 4° C. until use.
Upon thaw, cells were expanded for 5 to 8 (2 to 3 day each) passages in a combination of 250 mL, 500 mL, and 1000 mL Corning vented non-baffled shake flasks. Production cultures were initiated in duplicate 500 mL Corning vented non-baffled shake flasks (200 mL working volume) at an initial VCD of approximately 0.5×10^6 cells/mL. Cultures were maintained on orbital shakers at 180 RPM in a dry incubator at 35° C. and 5% CO2. A glucose solution (1.25% (v/v) of 40% solution) was fed when the media glucose concentration fell below 3 g/L. […]

Test [3] concerns adalimumab-producing CHO cell line #3. Description: Example 5 oligosaccharide analysis, CDM GIA-1, fed-batch 3 L bioreactors. The test is classed as cell-based, Chinese Hamster. On the procedure: as §1, §2
Growth and production media for the adalimumab-producing CHO cell line #3 were prepared using the proprietary Life Technologies Gibco chemically defined media, GIA-1.
Upon thaw, cells were expanded in Corning vented non-baffled shake flasks maintained on orbital shakers at 140 RPM, and in 10 L cell bags (2 L working volume) maintained at 25 RPM, 7° angle, and 0.25 SLPM airflow in a dry incubator at 36° C. and 5% CO2. Production cultures were initiated in 3 L bioreactors (1.4 L initial working volume) at 36° C., 30% dissolved oxygen, 200 RPM, and pH 6.9±0.2. A fixed split ratio of cells to media of 1:6.7 was utilized to initiate the production stage cultures. A temperature shift was performed when the culture VCD reached a value higher than 5×10^6 cells/mL. The chemically-defined feed from Life Technologies Gibco JCL-5 was added as follows: 4% (v/v)—day 2, 6%—day 4, 8%—day 6, 10%—day 8, and 10%—day 10. […] Bioreactors were harvested at a viability of approximately 50% or on production day 17, whichever condition occurred first.
Galactose was supplemented at 0 and 30 mM concentrations in both production and feed media.

The test system of test [4] is adalimumab-producing NSO cell line. Nature of the test: Example 6 oligosaccharide analysis, CDM PFBM-3/PFFM-4, fed-batch shake flasks. The test is classed as cell-based.
Excerpt: as §2
Growth and production media for the adalimumab-producing NSO cell line were prepared using a proprietary Life Technologies Gibco chemically defined media, PFBM-3 basal medium plus PFFM-4 feed medium.
Upon thaw, cells were expanded for 3 to 5 (2 days each) passages in a combination of 250 mL, 500 mL, 1 L, 2 L and 3 L Corning vented non-baffled shake flasks. Production cultures were initiated in single 1 L Corning vented non-baffled shake flasks (240 mL initial working volume) at an initial VCD of approximately 2.5×10^5 cells/mL. Cultures were maintained on orbital shakers at 100 RPM in a dry incubator at 37° C. and 5% CO2. The shake flask study was run in a fed-batch mode and the culture was fed PFFM-4 as follows: 24 mL—day 2, 28.8 mL—day 4, 28.8 mL—day 6, and 28.8 mL—day 8.
Samples were collected every 2 days and measured for cell density and viability using a Cedex cell counter. Retention samples for titer analysis via Poros A method were collected daily beginning on Day 8 by centrifugation at 2,000 g for 10 min and then filtered through 0.2 μm PVDF syringe filter. The cultures were harvested on production day 10. The entire culture was collected, chilled on ice to approximately 0° C. for 1.5 hours, the cells and debris flocculated at pH 5.0 by the addition of 1M citric acid and held for 15 minutes, and centrifuged at 4000x g for 15 min at 5° C. The supernatant was passed through 0.20 μm Millipore Stericup PES filters, and, immediately post filtration, the acidified clarified cell-free harvest was neutralized with 2M Tris to pH 7.1±0.2. The cell free harvest was transferred to PETG bottles and stored at −80° C. until analysis.
Galactose was supplemented at the following levels in both production and feed media: 0, 1, 4, 5, and 10 mM.

Setting [5] is: manganese chloride alone, range 0 to 40 μM.
[6] abbreviates: 0.2 μM manganese chloride alone.
Where [7] appears, read: 0.5 μM manganese chloride alone.

`O=C[C@H](O)[C@@H](O)[C@@H](O)[C@H](O)CO` [galactose, D(+)Galactose]: the results for the “decrease in the NGA2F+NGA2F-GlcNac sum” value in test [1] (40 mM galactose alone), in test [3] (30 mM galactose alone) and in test [4] (4 mM galactose alone) were 6%, 4% and 2%, respectively. Moreover, the “increase in the NA1F+NA2F sum” value is 6% in test [1] (galactose alone up to 40 mM), 3% in test [3] (30 mM galactose alone) and 15% in test [4] (10 mM galactose alone). Besides, the “maximum decrease in the NGA2F+NGA2F-GlcNac sum” value is 6% in test [1] (galactose alone up to 40 mM) and 14% in test [4] (10 mM galactose alone). Also, in test [2], the “culture growth, viability profiles, and harvest titer” value is listed as “comparable to the control cultures”.
Turning to “Manganese (II) Chloride [manganese chloride]”, the “decrease in the NGA2F+NGA2F-GlcNac sum” value is recorded as 5% in test [1] (40 μM manganese chloride alone), 15% in test [3] (setting [6]) and 12% in test [4] (setting [6]). The entries for the “maximum decrease in the NGA2F+NGA2F-GlcNac sum” value in test [1] (setting [5]) and in test [4] (setting [7]) were 5% and 18%, respectively. In addition, in test [1] (setting [5]), the “maximum increase in the NA1F+NA2F sum” value was found to be 4%. For the same compound, the “culture growth, viability profiles, and harvest titer” value in test [2] is “comparable to the control cultures”. In addition, the “increase in the NA1F+NA2F sum” value in test [3] (setting [6]) is listed as 16%; in test [4] (setting [7]) it was 20%. In test [3] (1 μM manganese chloride alone), the “increase in the NA1F+NA2F oligosaccharides” value is 28%. In addition, in test [3] (1 μM manganese chloride alone), the “maximum decrease in the NGA2F+NGA2F-GlcNac” value was found to be 26%.
